Measurements: patent US9597407B2, “Targeted antimicrobial moieties” (C3 Jian, Inc., priority 2009, dated 2017)
“Also recorded” adds a separate entry of the source.

How the values were obtained:
[1] = test system: bacteria; experiment: Binding of targeting peptides to microorganisms (Table 3); details: preferably 1x PBS; for Target(s) (microorganism bound by the targeting peptide) / Target(s) (microorganisms bound by the targeting peptide): peptide binding in aqueous buffers that varied depending on peptide solubility
[2] = test system: microorganisms; experiment: Morphology, biofilm and growth disruption by peptides (Table 5); type: cell-based; parameters: key: A: Peptide aggregates; B: Less hyphal formation; Clumps; Diffuse clumps and small polyps; F: Diffuse growth; H: Thin; I: Growth inhibition; Microcolony formation; Rippled; Small polyps; Thick; W: Halo formation on top, microlonies on bottom
Description: In certain embodiments peptides that induce alterations in phenotype or other biological activities can also be used as antimicrobial effector moieties.

[3] = microorganism bound by the targeting peptide, binding in aqueous buffers chosen by peptide solubility
[4] = microorganism the targeting peptide binds, binding in aqueous buffers that varied with peptide solubility

PF-684 (chain 1 RKLSLASGFALWRRSLV; chain 2 RKLSLASGFALWRRSLV; Peptide with targeting and/or antimicrobial activity)
Target(s) (microorganism bound by the targeting peptide) [1]: Mycobacteria spp
Organism, effect (morphology, biofilm and growth disruption) ([2]; C. albicans): C. albicans (B)
Organism, effect (morphology, biofilm and growth disruption) ([2]; E. faecalis): E. faecalis (A)
Organism, effect (morphology, biofilm and growth disruption) ([2]; S. pneumoniae): S. pneumoniae (C)

PF-173 (AGRTAIVQGGG; Peptide with targeting and/or antimicrobial activity)
Target(s) [1, 3]: S. epidermidis; also recorded: M. luteus; also recorded: P. mirabilis; also recorded: E. coli; also recorded: P. aeruginosa; also recorded: C. albicans; also recorded: C. jeikeium; also recorded: C. jejuni
Organism, effect ([2]; C. jeikeium): C. jeikeium (D)
Organism, effect ([2]; S. epidermidis): S. epidermidis (A)

PF-700 (chain 1 LNWPFTGR; chain 2 LNWPFTGR; Peptide with targeting and/or antimicrobial activity)
Target(s) (microorganism bound by the targeting peptide) [1]: Mycobacteria spp
Organism, effect (morphology, biofilm and growth disruption) ([2]; S. pneumoniae): S. pneumoniae (C)

PF-663 (chain 1 ATLIPRKA; chain 2 ATLIPRKA; Peptide with targeting and/or antimicrobial activity)
Target(s) (microorganism bound by the targeting peptide) [1]: Mycobacteria spp
Organism, effect (morphology, biofilm and growth disruption) ([2]; S. pneumoniae): S. pneumoniae (A)

PF-192 (VEEDEAPPPHY; Peptide with targeting and/or antimicrobial activity)
Target(s) [1, 3]: S. epidermidis; also recorded: M. luteus; also recorded: P. aeruginosa; also recorded: C. albicans; also recorded: E. faecalis; also recorded: C. jeikeium
Organism, effect ([2]; S. epidermidis): S. epidermidis (D)

PF-694 (chain 1 DLIRPLYSMSAPSVA; chain 2 DLIRPLYSMSAPSVA; Peptide with targeting and/or antimicrobial activity)
Target(s) (microorganism bound by the targeting peptide) [1]: Mycobacteria spp
Organism, effect (morphology, biofilm and growth disruption) ([2]; MRSA): MRSA (R)
Organism, effect (morphology, biofilm and growth disruption) ([2]; S. pneumoniae): S. pneumoniae (A)

PF-215 (ELKITNYNVNTVLYRYYKWGNDLCE; Peptide with targeting and/or antimicrobial activity)
Target(s) [1, 3]: S. epidermidis; also recorded: M. luteus; also recorded: P. aeruginosa; also recorded: A. baumannii
Organism, effect ([2]; M. luteus): M. luteus (T)

PF-204 (ALQKQDMNLPSVKNQLVFLKSTG; Peptide with targeting and/or antimicrobial activity)
Target(s) [1, 3]: S. epidermidis; also recorded: P. mirabilis; also recorded: E. coli; also recorded: P. aeruginosa; also recorded: C. albicans; also recorded: C. jejuni
Organism, effect ([2]; C. jeikeium): C. jeikeium (D)
Organism, effect ([2]; M. luteus): M. luteus (C)
Organism, effect ([2]; P. aeruginosa): P. aeruginosa (H)
Organism, effect ([2]; S. epidermidis): S. epidermidis (C)

MQIFYIKTKIFLSFFLFLLIFSQCFYKIEE [PF-442]
Target(s) (microorganisms bound by the targeting peptide) [1]: S. epidermidis; also recorded: E. coli; also recorded: C. albicans; also recorded: S. pneumoniae; also recorded: E. faecalis
Organism, effect (morphology, biofilm and growth disruption) ([2]; MRSA): MRSA (M)
Organism, effect (morphology, biofilm and growth disruption) ([2]; S. pneumoniae): S. pneumoniae (C)

PF-273 (LVGALLIFVALIYMVLKGNADKN; Peptide with targeting and/or antimicrobial activity)
Target(s) [1, 3]: S. epidermidis; also recorded: M. luteus; also recorded: P. aeruginosa; also recorded: A. baumannii
Organism, effect ([2]; S. epidermidis): S. epidermidis (C)

PF-655 (chain 1 DAPCFDDQFGDLKCQMC; chain 2 DAPCFDDQFGDLKCQMC; Peptide with targeting and/or antimicrobial activity)
Target(s) (microorganism bound by the targeting peptide) [1]: M. smegmatis
Organism, effect (morphology, biofilm and growth disruption) ([2]; B. subtilis): B. subtilis (H)
Organism, effect (morphology, biofilm and growth disruption) ([2]; MRSA): MRSA (M)
Organism, effect (morphology, biofilm and growth disruption) ([2]; S. epidermidis): S. epidermidis (R)
Organism, effect (morphology, biofilm and growth disruption) ([2]; S. pneumoniae): S. pneumoniae (H)

PF-133 (GDPTAGQKPVECP; Peptide with targeting and/or antimicrobial activity)
Target(s) [1, 3]: S. epidermidis; also recorded: C. jeikeium; also recorded: C. jejuni; also recorded: M. smegmatis
Organism, effect ([2]; C. jeikeium): C. jeikeium (R)

SLQSQLGPCLHDQRH [PF-448]
Target(s) (microorganisms bound by the targeting peptide) [1]: S. epidermidis; also recorded: M. luteus; also recorded: P. mirabilis; also recorded: E. coli; also recorded: S. pneumoniae; also recorded: E. faecalis; also recorded: C. jeikeium; also recorded: C. jejuni
Organism, effect (morphology, biofilm and growth disruption) ([2]; S. pneumoniae): S. pneumoniae (I)

PF-644 (chain 1 TSGLIIGENGLNGL; chain 2 TSGLIIGENGLNGL; Peptide with targeting and/or antimicrobial activity)
Target(s) (microorganism bound by the targeting peptide) [1]: Mycobacteria spp
Organism, effect (morphology, biofilm and growth disruption) ([2]; S. pneumoniae): S. pneumoniae (H)

PF-598 (MKFMLEVRNKAISAYKEITRTQI; Peptide with targeting and/or antimicrobial activity)
Target(s) (microorganism bound by the targeting peptide) [1]: S. epidermidis and M. luteus and P. mirabilis and P. aeruginosa and C. albicans and MRSA and S. pneumoniae and C. jeikeium
Organism, effect (morphology, biofilm and growth disruption) ([2]; C. jejuni): C. jejuni (R)
Organism, effect (morphology, biofilm and growth disruption) ([2]; E. coli): E. coli (C)
Organism, effect (morphology, biofilm and growth disruption) ([2]; E. faecalis): E. faecalis (R)
Organism, effect (morphology, biofilm and growth disruption) ([2]; MRSA): MRSA (D)
Organism, effect (morphology, biofilm and growth disruption) ([2]; S. epidermidis): S. epidermidis (R)
Organism, effect (morphology, biofilm and growth disruption) ([2]; S. pneumoniae): S. pneumoniae (R)

PF-698 (chain 1 SSGRAGVKCRRPTGR; chain 2 SSGRAGVKCRRPTGR; Peptide with targeting and/or antimicrobial activity)
Target(s) (microorganism bound by the targeting peptide) [1]: Mycobacteria spp
Organism, effect (morphology, biofilm and growth disruption) ([2]; C. albicans): C. albicans (H)
Organism, effect (morphology, biofilm and growth disruption) ([2]; E. faecalis): E. faecalis (A)
Organism, effect (morphology, biofilm and growth disruption) ([2]; S. pneumoniae): S. pneumoniae (A)

PF-002 (chain 1 NDDAQ; chain 2 NDDAQ; Peptide with targeting and/or antimicrobial activity)
Target(s) [1, 4]: S. epidermidis; also recorded: P. mirabilis; also recorded: C. albicans; also recorded: C. jeikeium; also recorded: C. jejuni
Organism, effect ([2]; B. subtilis): B. subtilis (R)
Organism, effect ([2]; S. pneumoniae): S. pneumoniae (H)

ALDCSEQSVILWYETILDKIVGVIK [PF-028]
Target(s) [1, 4]: S. epidermidis and M. luteus and MRSA
Organism, effect ([2]; C. jeikeium): C. jeikeium (M)
Organism, effect ([2]; MRSA): MRSA (R)
Organism, effect ([2]; S. epidermidis): S. epidermidis (M)

PF-702 (chain 1 LSGRLAGRR; chain 2 LSGRLAGRR; Peptide with targeting and/or antimicrobial activity)
Target(s) (microorganism bound by the targeting peptide) [1]: Mycobacteria spp
Organism, effect (morphology, biofilm and growth disruption) ([2]; S. pneumoniae): S. pneumoniae (H)

PF-212 (NDSKASN; Peptide with targeting and/or antimicrobial activity)
Target(s) [1, 3]: M. luteus; also recorded: P. aeruginosa
Organism, effect ([2]; M. luteus): M. luteus (M)

PF-654 (chain 1 LSGRLAGRR; chain 2 LSGRLAGRR; Peptide with targeting and/or antimicrobial activity)
Target(s) (microorganism bound by the targeting peptide) [1]: Mycobacteria spp
Organism, effect (morphology, biofilm and growth disruption) ([2]; C. albicans): C. albicans (B)
Organism, effect (morphology, biofilm and growth disruption) ([2]; MRSA): MRSA (R)
Organism, effect (morphology, biofilm and growth disruption) ([2]; S. pneumoniae): S. pneumoniae (A)

PF-602 (LEKEKKEYIEKLFKTK; Peptide with targeting and/or antimicrobial activity)
Target(s) (microorganism bound by the targeting peptide) [1]: P. mirabilis; also recorded: C. jeikeium
Organism, effect (morphology, biofilm and growth disruption) ([2]; E. faecalis): E. faecalis (A)

PF-C088 (DIANNILNSVSERLIIA; Peptide with targeting and/or antimicrobial activity)
Target(s) (microorganism bound by the targeting peptide) [1]: A. naeslundii; also recorded: F. nucleatum; also recorded: P. gingivalis; also recorded: S. mutans; also recorded: T. denticola
Organism, effect (morphology, biofilm and growth disruption) ([2]; F. nucleatum): F. nucleatum (H)
Organism, effect (morphology, biofilm and growth disruption) ([2]; P. gingivalis): P. gingivalis (R)
Organism, effect (morphology, biofilm and growth disruption) ([2]; S. mutans): S. mutans (I)

PF-585 (DYNHLLNVVQDWVNTN; Peptide with targeting and/or antimicrobial activity)
Target(s) (microorganisms bound by the targeting peptide) [1]: S. epidermidis and E. coli and C. albicans and MRSA and S. pneumoniae and C. jeikeium
Organism, effect (morphology, biofilm and growth disruption) ([2]; C. jejuni): C. jejuni (R)
Organism, effect (morphology, biofilm and growth disruption) ([2]; E. faecalis): E. faecalis (A)
Organism, effect (morphology, biofilm and growth disruption) ([2]; MRSA): MRSA (S)
Organism, effect (morphology, biofilm and growth disruption) ([2]; S. epidermidis): S. epidermidis (S)
Organism, effect (morphology, biofilm and growth disruption) ([2]; S. pneumoniae): S. pneumoniae (R)

PF-176 (RLTSNQFLTRITPFVFAQH; Peptide with targeting and/or antimicrobial activity)
Target(s) [1, 3]: S. epidermidis and M. luteus and P. mirabilis and E. coli and C. albicans and MRSA and E. faecalis and C. jeikeium
Organism, effect ([2]; C. jeikeium): C. jeikeium (D)
Organism, effect ([2]; M. luteus): M. luteus (C)
Organism, effect ([2]; S. epidermidis): S. epidermidis (C)

PF-191 (QFCNFAWLFLASNNAQVSALA; Peptide with targeting and/or antimicrobial activity)
Target(s) [1, 3]: E. coli; also recorded: P. aeruginosa; also recorded: C. jejuni
Organism, effect ([2]; C. jeikeium): C. jeikeium (R)
Organism, effect ([2]; MRSA): MRSA (H)
Organism, effect ([2]; S. epidermidis): S. epidermidis (A)

PF-686 (chain 1 LAVLMGYIGYRGWSGKRHINRQ; chain 2 LAVLMGYIGYRGWSGKRHINRQ; Peptide with targeting and/or antimicrobial activity)
Target(s) (microorganism bound by the targeting peptide) [1]: M. smegmatis
Organism, effect (morphology, biofilm and growth disruption) ([2]; B. subtilis): B. subtilis (I)
Organism, effect (morphology, biofilm and growth disruption) ([2]; C. albicans): C. albicans (B)
Organism, effect (morphology, biofilm and growth disruption) ([2]; E. faecalis): E. faecalis (R)
Organism, effect (morphology, biofilm and growth disruption) ([2]; MRSA): MRSA (M)
Organism, effect (morphology, biofilm and growth disruption) ([2]; S. epidermidis): S. epidermidis (H)
Organism, effect (morphology, biofilm and growth disruption) ([2]; S. pneumoniae): S. pneumoniae (A)
